We go through seven molecules from US20230279341A1, “NOVEL FAECALIBACTERIUM PRAUSNITZII STRAIN EB-FPDK9 AND USE THEREOF” (ENTEROBIOME INC., priority 2020, published 2023).

Usually MIC stands for the lowest concentration found to suppress growth.

What all share (type): cell-based
For test [1], the system named is Faecalibacterium prausnitzii DSM 17677^T. Briefly: MIC, liquid medium microdilution method (CLSI), standard strain. (In general: In broth dilution the organism is exposed to a series of concentrations in liquid medium.)
Test [2] deals with Faecalibacterium prausnitzii EB-FPDK9 strain. Briefly: MIC, liquid medium microdilution method (CLSI), EB-FPDK9 strain. The settings on record: for Resistance or susceptibility of the EB-FPDK9 strain to the antimicrobial agent, in words: text summary of Table 4.
Test [3] has as its system Bacteroides thetiotaomicron ATCC 29741. Nature of the test: MIC, liquid medium microdilution method (CLSI), QC strain.

Values after ≈ are worked out from the molar mass of the structure shown.

On to `O=C(N[C@H](CO)[C@H](O)c1ccc([N+](=O)[O-])cc1)C(Cl)Cl` [CHL, chloramphenicol], for which the “Susceptibility class (S/I/R), DSM 17677^T” value in test [1] (CHL breakpoints) was “R (≥32)”. Besides, the “Susceptibility class (S/I/R), EB-FPDK9” value in test [2] (CHL breakpoints) is given as “R (≥32)”. Moreover, the “Resistance or susceptibility of the EB-FPDK9 strain to the antimicrobial agent, in words” value (“Resistance or susceptibility” for short) in test [2] is recorded as “resistance”.
On to `CCC[C@@H]1C[C@@H](C(=O)N[C@@H]([C@H]2O[C@H](SC)[C@H](O)[C@@H](O)[C@H]2O)[C@H](C)Cl)N(C)C1` [CLI, clindamycin], for which the “Susceptibility class (S/I/R), DSM 17677^T” value in test [1] (CLI breakpoints) is “S (≤2)”. For the same molecule, the “Susceptibility class (S/I/R), EB-FPDK9” value in test [2] (CLI breakpoints) is listed as “S (≤2)”.
Turning to `CO/N=C(\C(=O)N[C@@H]1C(=O)N2C(C(=O)O)=CCS[C@H]12)c1csc(N)n1` [CTZ, ceftizoxime], the “Susceptibility class (S/I/R), DSM 17677^T” value in test [1] (CTZ breakpoints) is listed as “I (64)”. In addition, in test [2] (CTZ breakpoints), the “Susceptibility class (S/I/R), EB-FPDK9” value was “R (≥128)”. For the same molecule, the “Resistance or susceptibility” value in test [2] was “resistance”.
On to `C[C@@H](O)[C@H]1C(=O)N2C(C(=O)O)=C(S[C@@H]3CN[C@H](C(=O)N(C)C)C3)[C@H](C)[C@H]12` [MEM, meropenem], for which, in test [1] (MEM breakpoints), the “Susceptibility class (S/I/R), DSM 17677^T” value was “R (≥16)”. Moreover, in test [3] (Bacteroides, ATCC29741, read-out: MIC, QC ATCC 29741), the MIC was found to be 0.5 µg/mL (≈ 1.3 µM). Besides, the “Susceptibility class (S/I/R), EB-FPDK9” value in test [2] (MEM breakpoints) is reported as “R (≥16)”. Besides, the “Resistance or susceptibility” value in test [2] was “resistance”.
Take `Cc1ncc([N+](=O)[O-])n1CCO` [MTZ, metronidazole]: the “Susceptibility class (S/I/R), DSM 17677^T” value in test [1] (MTZ breakpoints) is “S (≤8)”. In test [2] (MTZ breakpoints), the “Susceptibility class (S/I/R), EB-FPDK9” value was “S (≤8)”. Moreover, the “Resistance or susceptibility” value in test [2] is on record as “susceptibility”.
As to `COc1c(N2C[C@@H]3CCCN[C@@H]3C2)c(F)cc2c(=O)c(C(=O)O)cn(C3CC3)c12` [MXF, moxifloxacin], the “Susceptibility class (S/I/R), DSM 17677^T” value in test [1] (MXF breakpoints) was “R (≥8)”. Moreover, the “Susceptibility class (S/I/R), EB-FPDK9” value in test [2] (MXF breakpoints) is recorded as “R (≥8)”.
In the case of Piperacillin-tazobactam [PTZ], in test [1] (F. prausnitzii DSM 17677^T), the “MIC, test strain DSM 17677^T” value is recorded as 256/4. In addition, the “Susceptibility class (S/I/R), DSM 17677^T” value in test [1] (PTZ breakpoints) is “R (≥128/4)”. Moreover, in test [3] (Bacteroides thetiotaomicron ATCC 29741), the “MIC, QC ATCC 29741” value was 8/4. For the same molecule, in test [2] (F. prausnitzii EB-FPDK9), the “MIC, test strain EB-FPDK9” value is 32/4. Besides, the “Susceptibility class (S/I/R), EB-FPDK9” value in test [2] (PTZ breakpoints) is “S (≤32/4)”. Also, the “Resistance or susceptibility” value in test [2] is reported as “susceptibility”.
